PubChem BioAssay (NCI)
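In this assay, cells in 96-well plates receive the compound at five concentrations for 48 hours. Endpoints are linearly interpolated between the surrounding concentrations. GI50 = concentration required for 50% inhibition of growth. TGI: total growth inhibition.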

Legend:
Test in all cases: inhibition of tumour cell growth, NCI panel, 48 h
HCC-2998 colon = system: HCC-2998 colon
HCT-15 colon = system: HCT-15 colon
IGROV1 ovarian = system: IGROV1 ovarian
K-562 leukemia = system: K-562 leukemia
KM12 colon = system: KM12 colon
MDA-MB-231 breast = system: MDA-MB-231 breast
MOLT-4 leukemia = system: MOLT-4 leukemia
OVCAR-8 ovarian = system: OVCAR-8 ovarian
SK-MEL-2 melanoma = system: SK-MEL-2 melanoma
UACC-257 melanoma = system: UACC-257 melanoma

For `CN1CCN(c2cc(F)c(NC3=C(Cl)C(=O)c4ncccc4C3=O)c(F)c2)CC1`, the GI50 (HCC-2998 colon) was 1.84 µM, the TGI (HCC-2998 colon) was 3.55 µM and the GI50 (HCT-15 colon) was 1.53 µM. It also gave a TGI (HCT-15 colon) of 3.06 µM, a GI50 (IGROV1 ovarian) of 1.53 µM and a TGI (IGROV1 ovarian) of 3.37 µM. The GI50 (K-562 leukemia) was 0.651 µM, the TGI (K-562 leukemia) was > 100 µM and the GI50 (KM12 colon) was 2.01 µM. The TGI (KM12 colon) was 4.3 µM, the GI50 (MDA-MB-231 breast) was 1.94 µM and the TGI (MDA-MB-231 breast) was 3.87 µM. It also gave a GI50 (MOLT-4 leukemia) of 2.4 µM, a TGI (MOLT-4 leukemia) of 8.83 µM and a GI50 (OVCAR-8 ovarian) of 1.86 µM. The TGI (OVCAR-8 ovarian) was 4 µM, the GI50 (SK-MEL-2 melanoma) was 1.77 µM and the TGI (SK-MEL-2 melanoma) was 3.6 µM. It also gave a GI50 (UACC-257 melanoma) of 1.43 µM and a TGI (UACC-257 melanoma) of 2.78 µM.

With `Cc1ccc(NC(=O)c2ccoc2)cc1-c1ccc(C(=O)NCC2CC2)cc1` the GI50 (HCC-2998 colon) was > 25 µM, the TGI (HCC-2998 colon) was > 25 µM and the GI50 (HCT-15 colon) was > 20.5 µM. The TGI (HCT-15 colon) was > 25 µM, the GI50 (IGROV1 ovarian) was > 25 µM and the TGI (IGROV1 ovarian) was > 25 µM. For the same compound, the GI50 (K-562 leukemia) was > 18.6 µM, the TGI (K-562 leukemia) was > 25 µM and the GI50 (KM12 colon) was > 25 µM. For the same compound, the TGI (KM12 colon) was > 25 µM, the GI50 (MDA-MB-231 breast) was > 22.6 µM and the TGI (MDA-MB-231 breast) was > 25 µM. The GI50 (MOLT-4 leukemia) was > 25 µM, the TGI (MOLT-4 leukemia) was > 25 µM and the GI50 (OVCAR-8 ovarian) was > 25 µM. The TGI (OVCAR-8 ovarian) was > 25 µM, the GI50 (SK-MEL-2 melanoma) was > 25 µM and the TGI (SK-MEL-2 melanoma) was > 25 µM. For the same compound, the GI50 (UACC-257 melanoma) was > 17.7 µM and the TGI (UACC-257 melanoma) was > 25 µM.

With `C=CCn1c(SCC(=O)Nc2ccc(C(=O)/C=C/c3cc(OC)c(OC)c(OC)c3)cc2)nnc1-c1cc(OC)c(OC)c(OC)c1` the GI50 (HCC-2998 colon) was 2.05 µM, the TGI (HCC-2998 colon) was 4.48 µM and the GI50 (HCT-15 colon) was 1.86 µM. The TGI (HCT-15 colon) was 5.61 µM, the GI50 (IGROV1 ovarian) was 3.42 µM and the TGI (IGROV1 ovarian) was 18.4 µM. For the same compound, the GI50 (K-562 leukemia) was 3.44 µM, the TGI (K-562 leukemia) was > 100 µM and the GI50 (KM12 colon) was 2.82 µM. For the same compound, the TGI (KM12 colon) was 8.18 µM, the GI50 (MDA-MB-231 breast) was 3.81 µM and the TGI (MDA-MB-231 breast) was > 100 µM. For the same compound, the GI50 (MOLT-4 leukemia) was 4.22 µM, the TGI (MOLT-4 leukemia) was > 100 µM and the GI50 (OVCAR-8 ovarian) was 5.94 µM. The TGI (OVCAR-8 ovarian) was 34.9 µM, the GI50 (SK-MEL-2 melanoma) was 14.8 µM and the TGI (SK-MEL-2 melanoma) was 45.3 µM. It also gave a GI50 (UACC-257 melanoma) of 7.45 µM and a TGI (UACC-257 melanoma) of 36 µM.

`N#Cc1cnc2ccc(NCc3cnc[nH]3)cc2c1Nc1ccc(F)c(Cl)c1` was tested, and the GI50 (HCC-2998 colon) was > 100 µM, the TGI (HCC-2998 colon) was > 100 µM and the GI50 (HCT-15 colon) was > 100 µM. The TGI (HCT-15 colon) was > 100 µM, the GI50 (IGROV1 ovarian) was 2.6 µM and the TGI (IGROV1 ovarian) was > 100 µM. The GI50 (K-562 leukemia) was 9.3 µM, the TGI (K-562 leukemia) was > 100 µM and the GI50 (KM12 colon) was > 100 µM. The TGI (KM12 colon) was > 100 µM, the GI50 (MDA-MB-231 breast) was 17 µM and the TGI (MDA-MB-231 breast) was > 100 µM. For the same compound, the GI50 (MOLT-4 leukemia) was > 100 µM, the TGI (MOLT-4 leukemia) was > 100 µM and the GI50 (OVCAR-8 ovarian) was 4.51 µM. The TGI (OVCAR-8 ovarian) was > 100 µM, the GI50 (SK-MEL-2 melanoma) was 6.34 µM and the TGI (SK-MEL-2 melanoma) was > 100 µM. The GI50 (UACC-257 melanoma) was 86 µM and the TGI (UACC-257 melanoma) was > 100 µM.

For `CN1CCC2(CC1)C(=O)Nc1cc(NC(=O)c3ccc4c(c3)C[C@@H]3C(C)(C)[C@H](O)[C@H](F)C[C@@]3(C)O4)ccc12`, the GI50 (HCC-2998 colon) was 14.2 µM, the TGI (HCC-2998 colon) was 48.3 µM and the GI50 (HCT-15 colon) was 11 µM. The TGI (HCT-15 colon) was 45.8 µM, the GI50 (IGROV1 ovarian) was 13.1 µM and the TGI (IGROV1 ovarian) was > 100 µM. The GI50 (K-562 leukemia) was 0.201 µM, the TGI (K-562 leukemia) was > 100 µM and the GI50 (KM12 colon) was 1.38 µM. It also gave a TGI (KM12 colon) of 17.7 µM, a GI50 (MDA-MB-231 breast) of 3.36 µM and a TGI (MDA-MB-231 breast) of 21.1 µM. For the same compound, the GI50 (MOLT-4 leukemia) was 0.0342 µM, the TGI (MOLT-4 leukemia) was 1.5 µM and the GI50 (OVCAR-8 ovarian) was 26.6 µM. For the same compound, the TGI (OVCAR-8 ovarian) was > 100 µM, the GI50 (SK-MEL-2 melanoma) was 11.3 µM and the TGI (SK-MEL-2 melanoma) was 32.3 µM. It also gave a GI50 (UACC-257 melanoma) of 3.21 µM and a TGI (UACC-257 melanoma) of 21.2 µM.

In the case of `CC(C)OC(=O)Nc1c([N+](=O)[O-])cc(C(F)(F)F)cc1[N+](=O)[O-]`, the TGI (HCC-2998 colon) is reported as > 100 µM, the TGI (HCT-15 colon) is reported as > 100 µM and the TGI (IGROV1 ovarian) is reported as > 100 µM. The TGI (K-562 leukemia) was > 46.4 µM, the TGI (KM12 colon) was > 100 µM and the TGI (MDA-MB-231 breast) was > 100 µM. For the same compound, the TGI (MOLT-4 leukemia) was > 46.4 µM, the TGI (OVCAR-8 ovarian) was > 100 µM and the TGI (SK-MEL-2 melanoma) was > 100 µM. For the same compound, the TGI (UACC-257 melanoma) was > 100 µM.

`C=C(C)[C@@H]1CC[C@]2(C(=O)OC)CC[C@]3(C)[C@H](CC[C@@H]4[C@@](C)(CCc5nn[nH]n5)[C@H](C(=C)C)CC[C@]43C)[C@@H]12` was tested, and the GI50 (HCC-2998 colon) was 15.8 µM, the TGI (HCC-2998 colon) was 30.5 µM and the GI50 (HCT-15 colon) was 13.2 µM. For the same compound, the TGI (HCT-15 colon) was 35.7 µM, the GI50 (IGROV1 ovarian) was 17.4 µM and the TGI (IGROV1 ovarian) was 46.2 µM. For the same compound, the GI50 (K-562 leukemia) was 18.4 µM, the TGI (K-562 leukemia) was > 100 µM and the GI50 (KM12 colon) was 10.7 µM. For the same compound, the TGI (KM12 colon) was 25 µM, the GI50 (MDA-MB-231 breast) was 15.5 µM and the TGI (MDA-MB-231 breast) was 30.8 µM. The GI50 (MOLT-4 leukemia) was 11.7 µM, the TGI (MOLT-4 leukemia) was 40.8 µM and the GI50 (OVCAR-8 ovarian) was 28.6 µM. The TGI (OVCAR-8 ovarian) was > 100 µM, the GI50 (SK-MEL-2 melanoma) was 16.7 µM and the TGI (SK-MEL-2 melanoma) was 39.5 µM. For the same compound, the GI50 (UACC-257 melanoma) was 23.9 µM and the TGI (UACC-257 melanoma) was 79.9 µM.

In the case of `O=C(O)C1CCCN1` (stereo not drawn), the TGI (HCC-2998 colon) is reported as > 100 µM, the TGI (HCT-15 colon) is reported as > 100 µM and the TGI (IGROV1 ovarian) is reported as > 100 µM. For the same compound, the TGI (K-562 leukemia) was > 100 µM, the TGI (KM12 colon) was > 100 µM and the TGI (MDA-MB-231 breast) was > 100 µM. The TGI (MOLT-4 leukemia) was > 100 µM, the TGI (OVCAR-8 ovarian) was > 100 µM and the TGI (SK-MEL-2 melanoma) was > 100 µM. The TGI (UACC-257 melanoma) was > 100 µM.

In the case of `CN1CCN(CCCOC(=O)c2c3c(n4ccccc24)C(=O)c2ncccc2C3=O)CC1`, the GI50 (HCC-2998 colon) is reported as < 0.0135 µM, the TGI (HCC-2998 colon) is reported as 1.98 µM and the GI50 (HCT-15 colon) is reported as < 0.0143 µM. The TGI (HCT-15 colon) was 1.52 µM, the GI50 (IGROV1 ovarian) was < 0.0194 µM and the TGI (IGROV1 ovarian) was 4.71 µM. The GI50 (K-562 leukemia) was < 0.0113 µM, the GI50 (KM12 colon) was 0.0669 µM and the TGI (KM12 colon) was 13.8 µM. For the same compound, the GI50 (MDA-MB-231 breast) was 2.53 µM, the TGI (MDA-MB-231 breast) was 37.2 µM and the GI50 (MOLT-4 leukemia) was 0.0604 µM. For the same compound, the TGI (MOLT-4 leukemia) was 23.4 µM, the GI50 (OVCAR-8 ovarian) was < 0.011 µM and the TGI (OVCAR-8 ovarian) was 11.9 µM. It also gave a GI50 (SK-MEL-2 melanoma) of 0.0313 µM, a TGI (SK-MEL-2 melanoma) of 0.274 µM and a GI50 (UACC-257 melanoma) of 0.0219 µM. For the same compound, the TGI (UACC-257 melanoma) was 1.3 µM.

`COc1cccc2c1C(=O)c1c(O)c3c(c(O)c1C2=O)C[C@@](O)(/C(C)=N/NC(=O)c1cccc([N+](=O)[O-])c1)C[C@@H]3OC1CC(N)C(O)C(C)O1` (stereo partly drawn) showed a GI50 (HCC-2998 colon) of 0.326 µM, a TGI (HCC-2998 colon) of 2.77 µM and a GI50 (HCT-15 colon) of 1.57 µM. For the same compound, the TGI (HCT-15 colon) was 14.2 µM, the GI50 (IGROV1 ovarian) was 0.932 µM and the GI50 (K-562 leukemia) was 0.356 µM. The TGI (K-562 leukemia) was 5.16 µM, the GI50 (KM12 colon) was 0.404 µM and the TGI (KM12 colon) was 10.9 µM. The GI50 (MDA-MB-231 breast) was 1.59 µM, the TGI (MDA-MB-231 breast) was 21.3 µM and the GI50 (MOLT-4 leukemia) was 0.0524 µM. The TGI (MOLT-4 leukemia) was 4.9 µM, the GI50 (OVCAR-8 ovarian) was 0.366 µM and the TGI (OVCAR-8 ovarian) was 21 µM. It also gave a GI50 (SK-MEL-2 melanoma) of 0.996 µM, a TGI (SK-MEL-2 melanoma) of 3.23 µM and a GI50 (UACC-257 melanoma) of 0.757 µM. The TGI (UACC-257 melanoma) was 3.43 µM.

In the case of `CC(C)Cn1cnc2c(N)nc3ccccc3c21`, the GI50 (HCC-2998 colon) is reported as > 63.5 µM, the TGI (HCC-2998 colon) is reported as > 100 µM and the GI50 (HCT-15 colon) is reported as 29.7 µM. For the same compound, the TGI (HCT-15 colon) was > 100 µM, the GI50 (IGROV1 ovarian) was 51.8 µM and the TGI (IGROV1 ovarian) was > 100 µM. For the same compound, the GI50 (K-562 leukemia) was > 54.7 µM, the TGI (K-562 leukemia) was > 100 µM and the GI50 (KM12 colon) was 56.6 µM. The TGI (KM12 colon) was > 100 µM, the GI50 (MDA-MB-231 breast) was 46 µM and the TGI (MDA-MB-231 breast) was > 100 µM. The GI50 (MOLT-4 leukemia) was > 64.4 µM, the TGI (MOLT-4 leukemia) was > 100 µM and the GI50 (OVCAR-8 ovarian) was 67.5 µM. The TGI (OVCAR-8 ovarian) was > 100 µM, the GI50 (SK-MEL-2 melanoma) was 41.5 µM and the TGI (SK-MEL-2 melanoma) was > 100 µM. The GI50 (UACC-257 melanoma) was 33.7 µM and the TGI (UACC-257 melanoma) was > 91.5 µM.
